Results: patent publication US8785457B2 (Cellzome Limited, priority 2009, dated 2014)
Where two headings read alike, the source gives them in different places.

Tests used:
[1] = target: T1, DNA-dependent protein kinase (DNA-PK) (Homo sapiens, UniProt P78527); assay: kinobeads assay, DNA-PK; type: binding
T1 construct: endogenous in cells; host or cells: Jurkat, clone E6-1 (ATCC TIB-152) cell lysate
Summary of the method: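 Competitive binding in Jurkat cell lysate (5 mg/mL protein) against beads carrying an immobilized phenylmorpholin-chromen ligand, in DP buffer pH 7.4 with NP40, DTT and NaF. Bead-bound kinases were eluted and quantified by antibody dot blot with infrared detection, and IC50 was taken from dose-response curves of a 1:3 dilution series.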

mTOR = target: T2, mTOR (Homo sapiens, UniProt P42345); assay: mTOR kinobeads assay (competitive binding in Jurkat cell lysate, immunodetection)
T2 construct: endogenous in cells; host or cells: Jurkat, clone E6-1 (ATCC TIB-152) cell lysate
Summary of the method: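 IC50 derived from dose-response curves of mTOR captured on immobilized phenylmorpholin-chromen beads, detected by antibody dot blot with infrared fluorescence.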

[2] = kinobeads assay, Table 4, read-out: Inhibition values (IC50) DNA-PK
[3] = kinobeads assay, Table 6, read-out: Inhibition values (IC50) DNAPK
[4] = kinobeads assay, Table 4, read-out: Inhibition values (IC50) mTor
[5] = kinobeads assay, Table 6, read-out: Inhibition values (IC50) mTOR
[6] = Further Kinobeads Data, read-out: DNAPK
[7] = Further Kinobeads Data, read-out: mTor

T1 sequence (P78527 whole entry): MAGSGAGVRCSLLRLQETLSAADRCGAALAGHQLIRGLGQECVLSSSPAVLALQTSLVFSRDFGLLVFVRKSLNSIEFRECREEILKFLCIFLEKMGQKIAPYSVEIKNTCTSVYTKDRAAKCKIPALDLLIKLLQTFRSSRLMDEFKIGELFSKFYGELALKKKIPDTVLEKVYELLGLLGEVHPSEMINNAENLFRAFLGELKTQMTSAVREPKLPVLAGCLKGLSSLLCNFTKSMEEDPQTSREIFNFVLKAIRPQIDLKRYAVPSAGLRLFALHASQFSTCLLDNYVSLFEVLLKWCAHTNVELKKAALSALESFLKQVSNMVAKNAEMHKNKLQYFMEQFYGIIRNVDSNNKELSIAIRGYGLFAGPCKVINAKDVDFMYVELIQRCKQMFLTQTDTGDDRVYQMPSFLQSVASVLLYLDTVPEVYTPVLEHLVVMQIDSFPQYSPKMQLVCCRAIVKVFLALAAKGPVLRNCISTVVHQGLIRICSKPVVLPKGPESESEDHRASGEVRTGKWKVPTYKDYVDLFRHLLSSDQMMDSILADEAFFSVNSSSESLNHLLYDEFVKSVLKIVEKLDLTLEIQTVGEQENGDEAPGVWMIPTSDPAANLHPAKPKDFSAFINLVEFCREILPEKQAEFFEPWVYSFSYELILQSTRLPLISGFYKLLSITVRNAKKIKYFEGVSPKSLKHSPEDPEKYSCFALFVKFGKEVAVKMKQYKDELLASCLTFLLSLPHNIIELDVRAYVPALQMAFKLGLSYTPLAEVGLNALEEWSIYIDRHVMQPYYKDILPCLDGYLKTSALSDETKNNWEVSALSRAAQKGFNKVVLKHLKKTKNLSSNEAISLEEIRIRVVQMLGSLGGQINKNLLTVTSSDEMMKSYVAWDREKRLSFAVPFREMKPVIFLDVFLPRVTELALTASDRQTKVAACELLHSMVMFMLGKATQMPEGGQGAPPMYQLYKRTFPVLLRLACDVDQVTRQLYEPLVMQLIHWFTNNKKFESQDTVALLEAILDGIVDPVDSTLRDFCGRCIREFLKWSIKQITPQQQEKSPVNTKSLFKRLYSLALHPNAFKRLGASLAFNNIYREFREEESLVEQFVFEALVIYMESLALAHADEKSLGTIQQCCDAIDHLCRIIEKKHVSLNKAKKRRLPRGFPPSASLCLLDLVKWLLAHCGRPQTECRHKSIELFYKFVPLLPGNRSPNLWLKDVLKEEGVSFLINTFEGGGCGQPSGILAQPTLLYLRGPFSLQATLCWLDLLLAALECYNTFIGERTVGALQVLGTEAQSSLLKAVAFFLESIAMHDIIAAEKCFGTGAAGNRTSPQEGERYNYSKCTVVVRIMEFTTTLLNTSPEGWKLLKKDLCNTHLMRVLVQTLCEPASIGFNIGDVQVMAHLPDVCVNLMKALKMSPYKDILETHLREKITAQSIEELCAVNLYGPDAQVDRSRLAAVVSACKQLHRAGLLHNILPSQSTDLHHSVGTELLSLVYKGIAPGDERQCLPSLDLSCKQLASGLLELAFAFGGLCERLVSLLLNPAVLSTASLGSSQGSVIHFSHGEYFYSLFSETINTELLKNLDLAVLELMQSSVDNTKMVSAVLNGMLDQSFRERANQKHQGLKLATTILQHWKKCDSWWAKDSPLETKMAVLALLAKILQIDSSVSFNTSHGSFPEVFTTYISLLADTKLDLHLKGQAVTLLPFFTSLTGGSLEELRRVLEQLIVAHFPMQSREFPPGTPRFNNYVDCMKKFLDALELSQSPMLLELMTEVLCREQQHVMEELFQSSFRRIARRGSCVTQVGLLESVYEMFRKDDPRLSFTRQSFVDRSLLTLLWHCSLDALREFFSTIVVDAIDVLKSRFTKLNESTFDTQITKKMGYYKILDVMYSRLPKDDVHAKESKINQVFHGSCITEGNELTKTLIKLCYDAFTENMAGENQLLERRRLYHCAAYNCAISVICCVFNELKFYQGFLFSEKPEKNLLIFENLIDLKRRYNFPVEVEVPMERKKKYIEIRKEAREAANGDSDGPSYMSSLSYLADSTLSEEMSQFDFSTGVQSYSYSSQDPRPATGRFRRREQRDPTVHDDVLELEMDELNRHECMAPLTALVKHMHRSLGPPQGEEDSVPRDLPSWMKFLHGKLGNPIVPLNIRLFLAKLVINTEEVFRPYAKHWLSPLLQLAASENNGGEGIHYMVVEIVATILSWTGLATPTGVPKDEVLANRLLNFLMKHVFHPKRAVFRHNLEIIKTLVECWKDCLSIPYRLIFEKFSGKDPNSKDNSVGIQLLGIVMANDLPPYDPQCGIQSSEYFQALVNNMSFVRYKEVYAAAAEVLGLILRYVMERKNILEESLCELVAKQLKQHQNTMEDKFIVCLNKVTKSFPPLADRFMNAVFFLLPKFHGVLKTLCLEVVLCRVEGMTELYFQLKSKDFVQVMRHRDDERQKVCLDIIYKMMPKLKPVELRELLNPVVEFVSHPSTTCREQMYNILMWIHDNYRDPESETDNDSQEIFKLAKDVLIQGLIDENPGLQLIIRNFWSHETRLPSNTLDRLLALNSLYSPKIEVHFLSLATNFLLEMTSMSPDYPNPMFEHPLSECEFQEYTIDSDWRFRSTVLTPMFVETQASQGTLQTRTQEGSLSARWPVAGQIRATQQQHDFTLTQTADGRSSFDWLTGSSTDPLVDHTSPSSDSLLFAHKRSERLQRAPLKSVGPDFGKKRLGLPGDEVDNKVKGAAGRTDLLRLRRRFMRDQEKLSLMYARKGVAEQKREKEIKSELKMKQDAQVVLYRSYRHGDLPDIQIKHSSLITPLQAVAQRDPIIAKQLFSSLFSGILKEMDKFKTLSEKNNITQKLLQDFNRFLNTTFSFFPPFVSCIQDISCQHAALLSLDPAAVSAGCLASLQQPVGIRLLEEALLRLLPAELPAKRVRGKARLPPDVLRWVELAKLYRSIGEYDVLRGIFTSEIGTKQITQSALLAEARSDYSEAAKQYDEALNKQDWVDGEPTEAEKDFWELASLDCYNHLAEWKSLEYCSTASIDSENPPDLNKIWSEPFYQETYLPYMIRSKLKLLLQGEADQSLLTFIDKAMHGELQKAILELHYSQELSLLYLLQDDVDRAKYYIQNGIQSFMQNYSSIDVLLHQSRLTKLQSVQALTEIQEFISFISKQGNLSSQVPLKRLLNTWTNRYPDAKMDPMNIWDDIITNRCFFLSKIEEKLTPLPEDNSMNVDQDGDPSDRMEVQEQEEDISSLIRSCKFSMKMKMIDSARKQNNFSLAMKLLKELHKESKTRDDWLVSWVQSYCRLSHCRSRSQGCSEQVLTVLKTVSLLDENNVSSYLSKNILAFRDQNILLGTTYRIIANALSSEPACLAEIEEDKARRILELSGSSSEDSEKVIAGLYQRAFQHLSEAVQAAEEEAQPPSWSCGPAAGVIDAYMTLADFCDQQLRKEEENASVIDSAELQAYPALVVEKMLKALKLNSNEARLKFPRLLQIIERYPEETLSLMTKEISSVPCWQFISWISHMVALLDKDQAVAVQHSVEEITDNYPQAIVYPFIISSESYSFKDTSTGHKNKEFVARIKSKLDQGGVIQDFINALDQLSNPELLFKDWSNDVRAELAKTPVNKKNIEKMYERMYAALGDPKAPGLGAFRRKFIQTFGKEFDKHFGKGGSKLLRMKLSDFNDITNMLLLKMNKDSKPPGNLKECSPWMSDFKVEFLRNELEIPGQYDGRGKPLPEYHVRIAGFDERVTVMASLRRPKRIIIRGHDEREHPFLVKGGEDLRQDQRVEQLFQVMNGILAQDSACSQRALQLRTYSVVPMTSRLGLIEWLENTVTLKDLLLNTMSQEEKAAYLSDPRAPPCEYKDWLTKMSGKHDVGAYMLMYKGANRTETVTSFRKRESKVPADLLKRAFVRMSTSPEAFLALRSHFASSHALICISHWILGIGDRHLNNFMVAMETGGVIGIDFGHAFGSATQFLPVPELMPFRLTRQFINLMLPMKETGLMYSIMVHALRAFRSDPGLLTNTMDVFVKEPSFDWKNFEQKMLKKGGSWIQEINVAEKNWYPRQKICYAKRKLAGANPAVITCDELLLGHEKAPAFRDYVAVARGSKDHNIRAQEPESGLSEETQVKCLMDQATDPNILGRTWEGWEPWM

IC50 [1, 2] [nM]	IC50 [1, 3] [nM]	IC50 (mTOR; [4]) [nM]	IC50 (mTOR; [5]) [nM]	IC50 [1, 6] [nM]	IC50 (mTOR; [7]) [nM]	SMILES
> 10000	> 10000	< 100	< 100	–	–	CCNC(=O)Nc1ccc(-c2nc3c(c(N4CCOC[C@@H]4C)n2)CN(CC)C3)cc1 [Example 39, (S)-1-ethyl-3-(4-(6-ethyl-4-(3-methylmorpholino)-6,7-dihydro-5H-pyrrolo[3,4-d]pyrimidin-2-yl)phenyl)urea]
> 10000	> 10000	< 100	< 100	–	–	CC(C)C(=O)N1Cc2nc(-c3ccc(NC(=O)NC4CC4)cc3)nc(N3CCOC[C@@H]3C)c2C1 [Example 44, (S)-1-cyclopropyl-3-(4-(6-isobutyryl-4-(3-methylmorpholino)-6,7-dihydro-5H-pyrrolo[3,4-d]pyrimidin-2-yl)phenyl)urea]
> 10000	> 10000	100 to 1000	100 to 1000	–	–	C[C@H]1COCCN1c1nc(-c2ccc(NC(=O)NC3CC3)cc2)nc2c1CN(C(=O)C(C)(C)C)C2 [Example 45, (S)-1-cyclopropyl-3-(4-(4-(3-methylmorpholino)-6-pivaloyl-6,7-dihydro-5H-pyrrolo[3,4-d]pyrimidin-2-yl)phenyl)urea]
> 10000	> 10000	< 100	< 100	–	–	CCNC(=O)Nc1ccc(-c2nc3c(c(N4CCOC[C@@H]4C)n2)CCN(C(=O)C2CC2)C3)cc1 [Example 56, (S)-1-(4-(7-(cyclopropanecarbonyl)-4-(3-methylmorpholino)-5,6,7,8-tetrahydropyrido[3,4-d]pyrimidin-2-yl)phenyl)-3-ethylurea]
> 10000	> 10000	< 100	< 100	–	–	CCNC(=O)Nc1ccc(-c2nc3c(c(N4CCOC[C@@H]4C)n2)CCN(C(=O)C(C)C)C3)cc1 [Example 57, (S)-1-ethyl-3-(4-(7-isobutyryl-4-(3-methylmorpholino)-5,6,7,8-tetrahydropyrido[3,4-d]pyrimidin-2-yl)phenyl)urea]
–	–	–	–	> 10000	1000 to 10000	CCNC(=O)Nc1cc(F)c(-c2nc3c(c(N4CCOC[C@@H]4C)n2)CN(C(=O)OCC)C3)cc1F [Example 141, (S)-ethyl 2-(4-(3-ethylureido)-2,5-difluorophenyl)-4-(3-methylmorpholino)-5H-pyrrolo[3,4-d]pyrimidine-6(7H)-carboxylate]
–	–	–	–	> 10000	100 to 1000	COC(=O)N1Cc2nc(-c3ccc(NC(=O)NC4CC4)cc3F)nc(N3CCOC[C@@H]3C)c2C1 [Example 146, (S)-methyl 2-(4-(3-cyclopropylureido)-2-fluorophenyl)-4-(3-methylmorpholino)-5H-pyrrolo[3,4-d]pyrimidine-6(7H)-carboxylate]
–	–	–	–	> 10000	< 100	C[C@H]1COCCN1c1nc(-c2ccc(NC(=O)NC3CC3)cc2F)nc2c1CN(C)C2 [Example 147, (S)-1-cyclopropyl-3-(3-fluoro-4-(6-methyl-4-(3-methylmorpholino)-6,7-dihydro-5H-pyrrolo[3,4-d]pyrimidin-2-yl)phenyl)urea]
–	–	–	–	> 10000	100 to 1000	CCNC(=O)Nc1ccc(-c2nc3c(c(N4CCOCC4)n2)CN(C(=O)OCC)C3)c(F)c1 [Example 151, Ethyl 2-(4-(3-ethylureido)-2-fluorophenyl)-4-morpholino-5H-pyrrolo[3,4-d]pyrimidine-6(7H)-carboxylate]
–	–	–	–	> 10000	100 to 1000	CCNC(=O)Nc1ccc(-c2nc3c(c(N4CCOC[C@@H]4C)n2)CN(C(=O)OC)C3)c(F)c1 [Example 152, (S)-methyl 2-(4-(3-ethylureido)-2-fluorophenyl)-4-(3-methylmorpholino)-5H-pyrrolo[3,4-d]pyrimidine-6-(7H)-carboxylate]
–	–	–	–	> 10000	< 100	CCNC(=O)Nc1ccc(-c2nc3c(c(N4CCOC[C@@H]4C)n2)CN(C(=O)OC(C)(C)C)C3)c(F)c1 [Example 153, (S)-tert-butyl 2-(4-(3-ethylureido)-2-fluorophenyl)-4-(3-methylmorpholino)-5H-pyrrolo[3,4-d]pyrimidine-6-(7H)-carboxylate]
–	–	–	–	> 10000	100 to 1000	CCNC(=O)Nc1ccc(-c2nc3c(c(N4CCOCC4)n2)CN(C)C3)c(F)c1 [Example 154, 1-ethyl-3-(3-fluoro-4-(6-methyl-4-morpholino-6,7-dihydro-5H-pyrrolo[3,4-d]pyrimidin-2-yl)phenyl)urea]
–	–	–	–	> 10000	< 100	CC(=O)N1Cc2nc(-c3ccc(NC(=O)NC4CC4)cc3F)nc(N3CCOC[C@@H]3C)c2C1 [Example 155, (S)-1-(4-(6-acetyl-4-(3-methylmorpholino)-6,7-dihydro-5H-pyrrolo[3,4-d]pyrimidin-2-yl)-3-fluorophenyl)-3-cyclopropylurea]
–	–	–	–	> 10000	< 100	CCOC(=O)N1Cc2nc(-c3ccc(NC(=O)NC4CC4)cc3F)nc(N3CCOCC3)c2C1 [Example 156, Ethyl 2-(4-(3-cyclopropylureido)-2-fluorophenyl)-4-morpholino-5H-pyrrolo[3,4-d]pyrimidine-6(7H)-carboxylate]

Further lines, the compound ahead of its results:

SMILES	IC50 [1, 2] [nM]	IC50 [1, 3] [nM]	IC50 (mTOR; [4]) [nM]	IC50 (mTOR; [5]) [nM]	IC50 [1, 6] [nM]	IC50 (mTOR; [7]) [nM]
C[C@H]1COCCN1c1nc(-c2ccc(NC(=O)NC3CC3)cc2)nc2c1CN(C)C2 [Example 38, (S)-1-cyclopropyl-3-(4-(6-methyl-4-(3-methylmorpholino)-6,7-dihydro-5H-pyrrolo[3,4-d]pyrimidin-2-yl)phenyl)urea]	> 10000	> 10000	< 100	< 100	–	–
C[C@H]1COCCN1c1nc(-c2ccc(NC(=O)NC3CC3)cc2)nc2c1CCN(CC1CC1)C2 [Example 40, (S)-1-cyclopropyl-3-(4-(7-(cyclopropylmethyl)-4-(3-methylmorpholino)-5,6,7,8-tetrahydropyrido[3,4-d]pyrimidin-2-yl)phenyl)urea]	> 10000	> 10000	< 100	< 100	–	–
C[C@H]1COCCN1c1nc(-c2ccc(NC(=O)NC3CC3)cc2)nc2c1CCN(CC(C)(C)C)C2 [Example 41, (S)-1-cyclopropyl-3-(4-(4-(3-methylmorpholino)-7-neopentyl-5,6,7,8-tetrahydropyrido[3,4-d]pyrimidin-2-yl)phenyl)urea]	> 10000	> 10000	100 to 1000	100 to 1000	–	–
CC(C)CN1CCc2c(nc(-c3ccc(NC(=O)NC4CC4)cc3)nc2N2CCOC[C@@H]2C)C1 [Example 42, (S)-1-cyclopropyl-3-(4-(7-isobutyl-4-(3-methylmorpholino)-5,6,7,8-tetrahydropyrido[3,4-d]pyrimidin-2-yl)phenyl)urea]	> 10000	> 10000	< 100	< 100	–	–
CC(C)N1CCc2c(nc(-c3ccc(NC(=O)NC4CC4)cc3)nc2N2CCOC[C@@H]2C)C1 [Example 43, (S)-1-cyclopropyl-3-(4-(7-isopropyl-4-(3-methylmorpholino)-5,6,7,8-tetrahydropyrido[3,4-d]pyrimidin-2-yl)phenyl)urea]	> 10000	> 10000	< 100	< 100	–	–
CC(C)N1Cc2nc(-c3ccc(NC(=O)NC4CC4)cc3)nc(N3CCOC[C@@H]3C)c2C1 [Example 46, (S)-1-cyclopropyl-3-(4-(6-isopropyl-4-(3-methylmorpholino)-6,7-dihydro-5H-pyrrolo[3,4-d]pyrimidin-2-yl)phenyl)urea]	> 10000	> 10000	< 100	< 100	–	–
CNC(=O)Nc1ccc(-c2nc3c(c(N4CCOC[C@@H]4C)n2)CN(CC2CC2)C3)cc1 [Example 47, (S)-1-(4-(6-(cyclopropylmethyl)-4-(3-methylmorpholino)-6,7-dihydro-5H-pyrrolo[3,4-d]pyrimidin-2-yl)phenyl)-3-methylurea]	> 10000	> 10000	< 100	< 100	–	–
C[C@H]1COCCN1c1nc(-c2ccc(NC(N)=O)cc2)nc2c1CN(CC1CC1)C2 [Example 48, (S)-1-(4-(6-(cyclopropylmethyl)-4-(3-methylmorpholino)-6,7-dihydro-5H-pyrrolo[3,4-d]pyrimidin-2-yl)phenyl)urea]	> 10000	> 10000	100 to 1000	100 to 1000	–	–
CCCNC(=O)Nc1ccc(-c2nc3c(c(N4CCOC[C@@H]4C)n2)CN(CC2CC2)C3)cc1 [Example 49, (S)-1-(4-(6-(cyclopropylmethyl)-4-(3-methylmorpholino)-6,7-dihydro-5H-pyrrolo[3,4-d]pyrimidin-2-yl)phenyl)-3-propylurea]	> 10000	> 10000	100 to 1000	100 to 1000	–	–
CC(C)NC(=O)Nc1ccc(-c2nc3c(c(N4CCOC[C@@H]4C)n2)CN(CC2CC2)C3)cc1 [Example 50, (S)-1-(4-(6-(cyclopropylmethyl)-4-(3-methylmorpholino)-6,7-dihydro-5H-pyrrolo[3,4-d]pyrimidin-2-yl)phenyl)-3-isopropylurea]	> 10000	> 10000	100 to 1000	100 to 1000	–	–
C[C@H]1COCCN1c1nc(-c2ccc(NC(=O)Nc3ccc(F)cc3)cc2)nc2c1CN(C)C2 [Example 52, (S)-1-(4-fluorophenyl)-3-(4-(6-methyl-4-(3-methylmorpholino)-6,7-dihydro-5H-pyrrolo[3,4-d]pyrimidin-2-yl)phenyl)urea]	> 10000	> 10000	100 to 1000	100 to 1000	–	–
C[C@H]1COCCN1c1nc(-c2ccc(NC(=O)NC3CCC3)cc2)nc2c1CN(C)C2 [Example 55, (S)-1-cyclobutyl-3-(4-(6-methyl-4-(3-methylmorpholino)-6,7-dihydro-5H-pyrrolo[3,4-d]pyrimidin-2-yl)phenyl)urea]	> 10000	> 10000	100 to 1000	100 to 1000	–	–
